Measurements: patent publication US20080004282A1, “Compositions and methods for modulating gated ion channels” (PainCeptor Pharma Corporation, priority 2006, published 2008)

Target: T1, ASIC1a (Homo sapiens, UniProt P78348)
T1 sequence (P78348 1-528): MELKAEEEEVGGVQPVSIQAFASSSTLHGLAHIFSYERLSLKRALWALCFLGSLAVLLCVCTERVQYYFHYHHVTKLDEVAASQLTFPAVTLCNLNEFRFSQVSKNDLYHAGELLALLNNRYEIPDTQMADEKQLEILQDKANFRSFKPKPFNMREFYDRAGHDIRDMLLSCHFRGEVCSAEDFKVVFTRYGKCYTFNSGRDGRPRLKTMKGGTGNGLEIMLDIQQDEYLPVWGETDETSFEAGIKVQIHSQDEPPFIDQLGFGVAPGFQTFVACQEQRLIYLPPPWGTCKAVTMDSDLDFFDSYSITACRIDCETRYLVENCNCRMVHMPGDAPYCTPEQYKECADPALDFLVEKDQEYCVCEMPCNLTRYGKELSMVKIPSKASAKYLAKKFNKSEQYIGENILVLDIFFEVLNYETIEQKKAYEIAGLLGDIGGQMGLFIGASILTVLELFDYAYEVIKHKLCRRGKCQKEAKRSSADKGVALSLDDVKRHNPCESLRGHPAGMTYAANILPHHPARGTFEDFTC
Experiment: Two-electrode voltage clamp of acid-induced currents in Xenopus laevis oocytes
Type: cell-based
Set-up: expressed in transfected cells; host or cells: Xenopus laevis oocytes, nuclear microinjection of an expression vector such as pCDNA3
Settings: 50 μM, Xenopus oocytes; read-out: % inh. at 50 μM (Xo)
Experimental: Screening and Bioanalysis of ASIC Antagonists in Xenopus laevis oocytes
This example describes the in vitro assessment of the activity of the compounds of the present invention.
Two-electrode voltage clamp electrophysiological assays in Xenopus laevis oocytes expressing gated ion channels are performed as follows:
Oocytes are surgically removed from adult Xenopus laevis and treated for 2 h at room temperature with 1 mg/ml type I collagenase (Sigma) in Barth's solution under mild agitation. Selected oocytes at stage IV-V are defolliculated manually before nuclear microinjection of 2.5-5 ng of a suitable expression vector, such as pCDNA3, comprising the nucleotide sequence encoding a gated ion channel subunit protein. In such an experiment, the oocytes express homomultimeric proton-gated ion channels on their surface. In an alternate experiment, one, two, three or more vectors comprising the coding sequences for distinct gated ion channel subunits are co-injected in the oocyte nuclei. In the latter case, oocytes express heteromultimeric proton-gated ion channels. For example, ASIC2a and/or ASIC3 subunits in pcDNA3 vector are co-injected at a 1:1 cDNA ratio. After 2-4 days of expression at 19° C. in Barth's solution containing […] gentamicin and 1.8 mM CaCl2, gated ion channels are activated by applying an acidic solution (pH<7) and currents are recorded in a two electrode voltage-clamp configuration, using an OC-725B amplifier (Warner Instruments). Currents are acquired and digitized at 500 Hz on an Apple Imac G3 computer with an A/D NB-MIO-16XL interface (National Instruments) and recorded traces are post-filtered at 100 Hz in Axograph (Axon Instruments) (Neher, E. and Sakmann, B. (1976) Nature 260:799-802). Once impaled with the microelectrodes, oocytes are continuously superfused at 10-12 ml/min with a modified Ringer's solution containing 97 mM NaCl, 2 mM KCl, 1.8 mM CaCl2, and 10 mM HEPES brought to pH 7.4 with NaOH (Control Ringer). Test Ringer solution is prepared by replacing HEPES with MES and adjusting the pH to the desired acidic value. Compounds of the present invention are prepared in both the Control and Test Ringer solutions and applied to oocytes at room temperature through a computer-controlled switching valve system. Osmolarity of all solutions is adjusted to 235 mOsm with choline chloride. Similarly, recordings can also be acquired in an automated multichannel oocytes system as the OpusExpress™ (Molecular Devices, Sunnyvale, USA).
FIGS. 1A and 2A illustrate the inhibitory effects of Compounds 12 and 44 on acid-induced activation of recombinant homomeric hASIC1a channels. FIGS. 1A and 2A show the dose-dependent inhibition of the acid-induced hASIC1a currents recorded from Xenopus laevis oocytes using the two-electrode voltage clamp method (as described in this example) in the absence or presence of increasing concentration of the compounds.

Question: `CCN1CCc2c(-c3cc(F)ccc3OC)ccc(NCC(=O)OC)c2C1` [Compound 2, [2-Ethyl-5-(5-fluoro-2-methoxy-phenyl)-1,2,3,4-tetrahydro-isoquinolin-8-ylamino]-acetic acid methyl ester] was tested. Which inhibition at 50 µM did it give?
Answer: Its inhibition at 50 µM is < 20%.

Question: `COc1ccc(F)cc1-c1cc(-c2noc(=O)[nH]2)c(N)c2c1CCN(C)C2` [Compound 5, 3-[8-Amino-5-(5-fluoro-2-methoxy-phenyl)-2-methyl-1,2,3,4-tetrahydro-isoquinolin-7-yl]-4H-[1,2,4]oxadiazol-5-one] was tested. Which inhibition at 50 µM did it give?
Answer: The inhibition at 50 µM was < 20%.

Question: How did the inhibition at 50 µM turn out when `CCN1CCc2c(-c3ccccc3)cc(C#N)c(NC(C)=O)c2C1` [Compound 8, N-(7-Cyano-2-ethyl-5-phenyl-1,2,3,4-tetrahydro-isoquinolin-8-yl)-acetamide] was run?
Answer: The inhibition at 50 µM was 20 to 30%.

Question: For `CCN1CCc2c(-c3ccccc3)cc(C#N)c(NS(C)(=O)=O)c2C1` [Compound 9, N-(7-Cyano-2-ethyl-5-phenyl-1,2,3,4-tetrahydro-isoquinolin-8-yl)-methanesulfonamide], which inhibition at 50 µM is on record?
Answer: Its inhibition at 50 µM is 15 to 25%.

Question: How did the inhibition at 50 µM turn out when `CCN1CCc2c(-c3ccccc3)cc(C#N)c(NC(=O)CC(=O)OC)c2C1` [Compound 14, N-(7-Cyano-2-ethyl-5-phenyl-1,2,3,4-tetrahydro-isoquinolin-8-yl)-malonamic acid methyl ester] was run?
Answer: Its inhibition at 50 µM is 20 to 30%.

Question: `CCN1CCc2c(-c3cc(F)ccc3OC)ccc(N3C(=O)CNC3=O)c2C1` [Compound 22] was tested. Which inhibition at 50 µM did it give?
Answer: The inhibition at 50 µM was < 20%.

Question: How did the inhibition at 50 µM turn out when `CCN1CCc2c(-c3cc(F)ccc3OC)ccc(NC(N)=O)c2C1` [Compound 23] was run?
Answer: The inhibition at 50 µM was 20 to 30%.

Question: How did the inhibition at 50 µM turn out when `CCOC(=O)CNC(=O)Nc1ccc(-c2cc(F)ccc2OC)c2c1CN(CC)CC2` [Compound 24] was run?
Answer: Its inhibition at 50 µM is 20 to 30%.

Question: How did the inhibition at 50 µM turn out when `CCN1CCc2c(-c3cc(F)ccc3OC)ccc(N3CC(=O)NC3=O)c2C1` [Compound 25] was run?
Answer: The inhibition at 50 µM was > 40%.

Question: `CCN1CCc2c(-c3cc(F)ccc3OC)ccc(NC(=O)NC(=O)N3C(=O)CN(c4ccc(-c5cc(F)ccc5OC)c5c4CN(CC)CC5)C3=O)c2C1` [Compound 26] was tested. Which inhibition at 50 µM did it give?
Answer: Its inhibition at 50 µM is > 30%.

Question: Which inhibition at 50 µM does the source give for `CCN1CCc2c(-c3cc(F)ccc3OC)ccc(NC=O)c2C1` [Compound 27] here?
Answer: The inhibition at 50 µM was < 20%.

Question: For `CCN1CCc2c(cc(N3C(=O)CNC3=O)cc2-c2cc(F)ccc2OC)C1` [Compound 28], which inhibition at 50 µM is on record?
Answer: Its inhibition at 50 µM is 20 to 30%.

Question: How did the inhibition at 50 µM turn out when `CC(=O)N1CCc2c(-c3ccccc3)cc(C#N)c(N)c2C1` [Compound 29] was run?
Answer: The inhibition at 50 µM was 20 to 30%.

Question: With `N#Cc1cc(-c2ccccc2)c2ccncc2c1N` [Compound 30] as the compound, how does the inhibition at 50 µM read?
Answer: Its inhibition at 50 µM is 20 to 30%.

Question: How did the inhibition at 50 µM turn out when `Cc1cc2c(N)c(C#N)cc(-c3ccccc3)c2cn1` [Compound 31] was run?
Answer: Its inhibition at 50 µM is > 30%.

Question: `Cc1cc2c(N)c(-c3ccccc3)cc(C#N)c2cn1` [Compound 32] was tested. Which inhibition at 50 µM did it give?
Answer: Its inhibition at 50 µM is > 30%.

Question: With `CCN1CCc2c(-c3ccccc3)cc(/C(N)=N/O)c(N)c2C1` [Compound 33] as the compound, how does the inhibition at 50 µM read?
Answer: The inhibition at 50 µM was > 30%.

Question: `CCN1CCc2c(-c3cc(F)ccc3OC)ccc(NC)c2C1` [Compound 34] was tested. Which inhibition at 50 µM did it give?
Answer: Its inhibition at 50 µM is > 40%.

Question: `CCN1CCc2c(-c3ccccc3)ccc(N)c2C1` [Compound 35] was tested. Which inhibition at 50 µM did it give?
Answer: The inhibition at 50 µM was 20 to 30%.

Question: How did the inhibition at 50 µM turn out when `CCN1CCc2c(-c3ccccc3)cc(-c3ccccn3)c(N)c2C1` [Compound 36] was run?
Answer: Its inhibition at 50 µM is < 20%.

Question: How did the inhibition at 50 µM turn out when `CCN1CCc2c(-c3ccccc3)cc(-c3cnccn3)c(N)c2C1` [Compound 37] was run?
Answer: The inhibition at 50 µM was > 30%.

Question: `CCN1CCc2c(-c3ccccc3)cc(-c3cnn(C)c3N)c(N)c2C1` [Compound 38] was tested. Which inhibition at 50 µM did it give?
Answer: The inhibition at 50 µM was > 30%.

Question: `CCN1CCc2c(-c3ccccc3)cc(-c3ccc(C)nn3)c(N)c2C1` [Compound 39] was tested. Which inhibition at 50 µM did it give?
Answer: The inhibition at 50 µM was 20 to 30%.

Question: `CCN1CCc2c(-c3ccccc3)cc(-c3cccc(C)n3)c(N)c2C1` [Compound 40] was tested. Which inhibition at 50 µM did it give?
Answer: Its inhibition at 50 µM is > 30%.

Question: Which inhibition at 50 µM does the source give for `CCN1CCc2c(cc(C#N)cc2-c2ccccc2)C1` [Compound 41] here?
Answer: The inhibition at 50 µM was > 30%.

Question: For `CCN1CCc2c(-c3ccccc3)cc(C#N)c(O)c2C1` [Compound 42], which inhibition at 50 µM is on record?
Answer: The inhibition at 50 µM was 20 to 30%.

Question: For `CCN1CCc2c(-c3ccccc3)cc(Br)c(N)c2C1` [Compound 46], which inhibition at 50 µM is on record?
Answer: Its inhibition at 50 µM is > 40%.

Question: How did the inhibition at 50 µM turn out when `CCN1CCc2c(-c3cc(C)ccc3C)cc(C#N)c(N)c2C1` [Compound 47] was run?
Answer: The inhibition at 50 µM was > 40%.

Question: With `CCN1CCc2c(-c3ccccc3)cc(Br)c(N(C)C)c2C1` [Compound 49] as the compound, how does the inhibition at 50 µM read?
Answer: Its inhibition at 50 µM is 20 to 30%.

Question: How did the inhibition at 50 µM turn out when `CCN1CCc2c(-c3ccccc3)cc(C#N)c([N+](=O)[O-])c2C1` [Compound 51] was run?
Answer: The inhibition at 50 µM was 20 to 30%.

Question: `CCN1CCc2c(-c3ccccc3)cc(C#N)c(Cl)c2C1` [Compound 52] was tested. Which inhibition at 50 µM did it give?
Answer: The inhibition at 50 µM was 25 to 35%.

Question: With `CCN1CCc2c(-c3ccccc3)cc(C#N)c(N3CCCC3)c2C1` [Compound 53] as the compound, how does the inhibition at 50 µM read?
Answer: The inhibition at 50 µM was > 40%.

Question: `CCN1CCc2c(-c3cccnc3)cc(C#N)c(N)c2C1` [Compound 54] was tested. Which inhibition at 50 µM did it give?
Answer: Its inhibition at 50 µM is > 50%.

Question: `CCN1CCc2c(-c3ccncc3)cc(C#N)c(N)c2C1` [Compound 55] was tested. Which inhibition at 50 µM did it give?
Answer: The inhibition at 50 µM was < 20%.

Question: Which inhibition at 50 µM does the source give for `CCN1CCc2c(-c3ccccc3)cc(C#N)c(N(S(C)(=O)=O)S(C)(=O)=O)c2C1` [Compound 56] here?
Answer: Its inhibition at 50 µM is < 20%.

Question: `CCN1CCc2c(-c3ccccc3)cc(C#N)c(NC(=O)C(=O)OC)c2C1` [Compound 57] was tested. Which inhibition at 50 µM did it give?
Answer: Its inhibition at 50 µM is < 20%.

Question: `CCN1CCc2c(-c3ccccc3)cc(C#N)c(N3C(=O)CCC3=O)c2C1` [Compound 58] was tested. Which inhibition at 50 µM did it give?
Answer: Its inhibition at 50 µM is 20 to 30%.

Question: For `CCN1CCc2c(-c3ccccc3)cc(C#N)c(-n3cccc3)c2C1` [Compound 59], which inhibition at 50 µM is on record?
Answer: The inhibition at 50 µM was > 50%.

Question: Which inhibition at 50 µM does the source give for `CCN1CCc2c(-c3ccccc3)cc(C#N)c(-c3cccnc3)c2C1` [Compound 60] here?
Answer: The inhibition at 50 µM was 45 to 55%.

Question: How did the inhibition at 50 µM turn out when `CCN1CCc2c(-c3ccccc3)cc(C#N)c(Br)c2C1` [Compound 61] was run?
Answer: Its inhibition at 50 µM is > 30%.

Question: Which inhibition at 50 µM does the source give for `CCN1CCc2c(-c3ccccc3)cc(C#N)c(-c3cnn(C)c3)c2C1` [Compound 62] here?
Answer: Its inhibition at 50 µM is > 30%.
